These results are taken from US20110105472A1, “Diaminopyrimidines as crop protection agents” (Bayer CropScience AG, priority 2008, published 2011).

A short description of this series: logP by LC-MS, method [b], acidic range pH 2.7. In kind it is physicochemical. The conditions noted are these: pH 2.7.

Turning to `CC(C)Sc1cccc(Nc2ncc(Cl)c(NC3CCC3)n2)c1` [Compound 146], the log p was 3.62[b].

Turning to `O=S(=O)(c1cccc(Nc2ncc(Br)c(NC3CCC3)n2)c1)N1CCOCC1` [Compound 147], the log p was 2.46[b].

As to `CC(=O)c1cc(Nc2ncc(Br)c(NC3CCC3)n2)ccc1Cl` [Compound 150], the log p was 2.95[b].

For `O=CNc1ccc(Nc2ncc(Br)c(NC3CCC3)n2)cc1` [Compound 152], the log p is 1.47[b].

On to `CN(C=O)c1ccc(Nc2ncc(Br)c(NC3CCC3)n2)cc1` [Compound 153], for which the log p was 1.68[b].

Take `O=CNc1cccc(Nc2ncc(Br)c(NC3CCC3)n2)c1` [Compound 154]: the log p is 1.58[b].

As for `CN(C)S(=O)(=O)c1cccc(Nc2ncc(Br)c(NC3CCC3)n2)c1` [Compound 157], the log p was 2.53[b].

For the compound `CN(C)S(=O)(=O)Oc1ccc(Nc2ncc(Br)c(NC3CCC3)n2)cc1` [Compound 160], the log p was 2.46[b].

On to `CC(C)(C)OC(=O)Nc1ccc(Nc2ncc(Br)c(NC3CCC3)n2)cc1` [Compound 162], for which the log p was 2.36[b].

For the compound `CN1CC(=O)N(c2ccc(Nc3ncc(Br)c(NC4CCC4)n3)cc2)C1=O` [Compound 164], the log p was 1.63[b].

For the compound `CC(C)(CCl)C(=O)Nc1ccc(Nc2ncc(Br)c(NC3CCC3)n2)cc1` [Compound 165], the log p was 2.16[b].

With `CC(C)(CF)C(=O)Nc1cccc(Nc2ncc(Br)c(NC3CCC3)n2)c1` [Compound 166], the log p was 2.09[b].

On to `O=C(Nc1cccc(Nc2ncc(Br)c(NC3CCC3)n2)c1)c1ccco1` [Compound 167], for which the log p is 1.94[b].

With `CC(C)(CF)C(=O)Nc1ccc(Nc2ncc(Br)c(NC3CCC3)n2)cc1` [Compound 171], the log p is 1.99[b].

On to `CCC(=O)c1ccc(Nc2ncc(Br)c(NC3CCC3)n2)cc1` [Compound 172], for which the log p is 3.19[b].

`O=C1OCCN1c1ccc(Nc2ncc(Br)c(NC3CCC3)n2)cc1` [Compound 173]: the log p is 1.62[b].

With `O=C1CCCN1c1ccc(Nc2ncc(Br)c(NC3CCC3)n2)cc1` [Compound 174], the log p is 1.72[b].

As to `COCCNCc1ccc(Nc2ncc(Br)c(NC3CCC3)n2)cc1` [Compound 176], the log p is 1.13[b].

Take `CC(=O)c1cc(Nc2ncc(Br)c(NC3CCC3)n2)ccc1O` [Compound 177]: the log p was 2.09[b].

Turning to `Oc1cccc(Nc2ncc(Br)c(NC3CCC3)n2)c1` [Compound 178], the log p is 1.5[b].

On to `CS(=O)(=O)c1ccc(Nc2ncc(Br)c(NC3CCC3)n2)cc1` [Compound 179], for which the log p is 2.32[b].

For the compound `O=C(NC1CC1)c1cccc(Nc2ncc(Br)c(NC3CCC3)n2)c1` [Compound 180], the log p was 1.78[b].

For `O=C(NCC(F)(F)F)c1cccc(Nc2ncc(Br)c(NC3CCC3)n2)c1` [Compound 181], the log p is 2.21[b].

Consider `Oc1ccc(Nc2ncc(Br)c(NC3CCC3)n2)cc1F` [Compound 184], for which the log p was 1.5[b].

As for `OCc1cccc(Nc2ncc(Br)c(NC3CCC3)n2)c1` [Compound 185], the log p was 1.44[b].

Turning to `CC(=O)Nc1ccc(Nc2ncc(Br)c(NC3CCC3)n2)cc1Cl` [Compound 186], the log p is 1.97[b].

With `O=C1NC(=O)C(c2ccc(Nc3ncc(Br)c(NC4CCC4)n3)cc2)N1` (centres unmarked) [Compound 187], the log p is 1.24[b].

For the compound `CCSc1cccc(Nc2ncc(Cl)c(NC3CCC3)n2)c1` [Compound 188], the log p is 3.15[b].

For `CCNC(=O)c1cccc(Nc2ncc(Br)c(NC3CCC3)n2)c1` [Compound 190], the log p is 1.73[b].

As for `O=C(c1ccc(Nc2ncc(Br)c(NC3CCC3)n2)cc1)N1CCOCC1` [Compound 191], the log p was 1.75[b].

As to `CNC(=O)c1cccc(Nc2ncc(Br)c(NC3CCC3)n2)c1` [Compound 192], the log p is 1.58[b].

As for `CCOC(=O)Nc1ccc(Nc2ncc(Br)c(NC3CCC3)n2)cc1` [Compound 195], the log p was 1.9[b].

With `CNC(=O)Oc1cccc(Nc2ncc(Br)c(NC3CCC3)n2)c1` [Compound 196], the log p is 1.75[b].

As to `O=C(c1ccc(Nc2ncc(Br)c(NC3CCC3)n2)cc1)C(F)(F)F` [Compound 197], the log p was 4.41[b].

Consider `CC(=O)Nc1cc(Nc2ncc(Br)c(NC3CCC3)n2)ccc1C` [Compound 200], for which the log p was 1.58[b].

With `Cc1cc(Nc2ncc(Br)c(NC3CCC3)n2)ccc1O` [Compound 201], the log p is 1.59[b].

Regarding `FC(F)Sc1ccc(Nc2ncc(Br)c(NC3CCC3)n2)cc1` [Compound 202], the log p is 3.41[b].

For the compound `O=C(c1ccc(Nc2ncc(Cl)c(NC3CCC3)n2)cc1)N1CCCCC1` [Compound 203], the log p is 2.27[b].

Consider `O=C1CCCCN1c1cccc(Nc2ncc(Cl)c(NC3CCC3)n2)c1` [Compound 204], for which the log p was 1.66[b].

With `CC(C)c1cccc(Nc2ncc(Br)c(NC3CCC3)n2)c1` [Compound 205], the log p was 3.21[b].

In the case of `O=C1N(CCCl)CCN1c1cccc(Nc2ncc(Br)c(NC3CCC3)n2)c1` [Compound 206], the log p was 2.19[b].

With `COc1ccc(Nc2ncc(Br)c(NC3CCC3)n2)cc1` [Compound 208], the log p was 1.8[b].

Consider `CC(=O)N(c1ccc(Nc2ncc(Br)c(NC3CCC3)n2)cc1)C1CC1` [Compound 209], for which the log p was 1.9[b].

Regarding `O=C1COCCN1c1cccc(Nc2ncc(Br)c(NC3CCC3)n2)c1` [Compound 210], the log p was 1.53[b].

As to `OC(c1cccc(Nc2ncc(Br)c(NC3CCC3)n2)c1)C(F)(F)F` (centres unmarked) [Compound 214], the log p is 2.17[b].

Turning to `OC(c1cccc(Nc2ncc(Cl)c(NC3CCC3)n2)c1)C(F)(F)F` (centres unmarked) [Compound 218], the log p is 2.04[b].

In the case of `N#CCc1cc(Nc2ncc(Br)c(NC3CCC3)n2)ccc1F` [Compound 219], the log p is 2.2[b].

In the case of `N#CCc1cccc(Nc2ncc(Br)c(NC3CCC3)n2)c1` [Compound 220], the log p was 2.12[b].

Consider `CCc1cc(Nc2ncc(Cl)c(NC3CCC3)n2)ccc1C` [Compound 222], for which the log p is 2.73[b].

Consider `O=C(c1ccc(Nc2ncc(C(F)(F)F)c(NC3CCC3)n2)cc1)N1CCCCC1` [Compound 223], for which the log p is 3.31[b].

On to `Cc1cccc(Nc2ncc(Br)c(NC3CCC3)n2)c1` [Compound 224], for which the log p is 2.55[b].

Consider `CC(C)c1cccc(Nc2ncc(C(F)(F)F)c(NC3CCC3)n2)c1` [Compound 225], for which the log p was 4.61[b].

Take `N#CCc1cccc(Nc2ncc(C(F)(F)F)c(NC3CCC3)n2)c1` [Compound 226]: the log p is 3.01[b].

For `CC(=O)c1cccc(Nc2ncc(C(F)(F)F)c(NC3CCC3)n2)c1` [Compound 227], the log p was 3.24[b].

On to `CCSc1cccc(Nc2ncc(Br)c(NC3CCC3)n2)c1` [Compound 228], for which the log p is 3.37[b].

As to `Brc1cnc(Nc2ccccc2)nc1NC1CCC1` [Compound 229], the log p was 2.18[b].

Consider `Cc1cccc(Nc2ncc(Cl)c(NC3CCC3)n2)c1` [Compound 231], for which the log p is 2.33[b].

`N#CCc1ccc(Nc2ncc(Cl)c(NC3CCC3)n2)cc1` [Compound 233]: the log p is 1.88[b].

On to `CN1CCN(c2cccc(Nc3ncc(Cl)c(NC4CCC4)n3)c2)C1=O` [Compound 237], for which the log p was 1.66[b].

For the compound `COc1cccc(Nc2ncc(C(F)(F)F)c(NC3CCC3)n2)c1` [Compound 238], the log p was 3.48[b].

Consider `C=CCNC(=O)c1ccc(Nc2ncc(C(F)(F)F)c(NC3CCC3)n2)cc1` [Compound 239], for which the log p was 2.79[b].

Regarding `CN(C)C(=O)c1ccc(Nc2ncc(Cl)c(NC3CCC3)n2)cc1` [Compound 240], the log p was 1.6[b].

In the case of `C=CCNC(=O)c1ccc(Nc2ncc(Cl)c(NC3CCC3)n2)cc1` [Compound 241], the log p was 1.91[b].

For the compound `N#CCc1cccc(Nc2ncc(Cl)c(NC3CCC3)n2)c1` [Compound 242], the log p was 1.97[b].

In the case of `CC(C)c1cccc(Nc2ncc(Cl)c(NC3CCC3)n2)c1` [Compound 243], the log p was 3.1[b].

In the case of `CC(=O)Cc1ccc(Nc2ncc(Cl)c(NC3CCC3)n2)cc1` [Compound 244], the log p was 1.75[b].

Turning to `CCN(C)C(=O)c1ccc(Nc2ncc(Cl)c(NC3CCC3)n2)cc1` [Compound 246], the log p was 1.85[b].

In the case of `CN(C)C(=O)c1cccc(Nc2ncc(Cl)c(NC3CCC3)n2)c1` [Compound 247], the log p was 1.57[b].

On to `O=C(c1ccc(Nc2ncc(Cl)c(NC3CCC3)n2)cc1)N1CCOCC1` [Compound 249], for which the log p is 1.24[b].

With `CCc1cccc(Nc2ncc(Cl)c(NC3CCC3)n2)c1` [Compound 251], the log p is 2.67[b].

Take `CCN(CC)C(=O)c1cccc(Nc2ncc(Br)c(NC3CCC3)n2)c1` [Compound 252]: the log p is 2.26[b].

With `CC(=O)CCc1cccc(Nc2ncc(Br)c(NC3CCC3)n2)c1` [Compound 253], the log p was 2.04[b].

With `CC(C)(C)c1cccc(Nc2ncc(Br)c(NC3CCC3)n2)c1` [Compound 254], the log p was 3.67[b].

On to `CC(=O)CCc1cccc(Nc2ncc(Cl)c(NC3CCC3)n2)c1` [Compound 256], for which the log p is 1.98[b].

For `O=S1(=O)CCCN1c1cccc(Nc2ncc(Cl)c(NC3CCC3)n2)c1` [Compound 257], the log p is 1.74[b].

For `O=S1(=O)CCCN1c1cccc(Nc2ncc(Br)c(NC3CCC3)n2)c1` [Compound 258], the log p is 2.25[b].

Regarding `CC(C)(C)c1cccc(Nc2ncc(C(F)(F)F)c(NC3CCC3)n2)c1` [Compound 259], the log p is 4.98[b].

Regarding `CNc1cccc(Nc2ncc(Cl)c(NC3CCC3)n2)c1` [Compound 260], the log p is 1.49[b].

With `CS(=O)(=O)c1cccc(Nc2ncc(C(F)(F)F)c(NC3CCC3)n2)c1` [Compound 264], the log p was 2.76[b].

With `CS(=O)(=O)c1cccc(Nc2ncc(Br)c(NC3CCC3)n2)c1` [Compound 265], the log p was 2.07[b].
